In ChEMBL document CHEMBL1201862, “PubChem BioAssay data set” (2004):
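The compound was tested at five concentrations on cells cultured in 96-well plates, with a 48-hour exposure period. Abbreviation: GI50, concentration required for 50% inhibition of growth.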 Active and inactive are the calls of the source. No stated cut-off is given here; in the data, active = GI50 up to about 1.1 µM and inactive = higher.

Columns and labels:
Test in all cases: growth of human tumour cells (NCI), 48 h
CCRF-CEM = test system: CCRF-CEM
LOX IMVI = test system: LOX IMVI
OVCAR-5 = test system: OVCAR-5
IGROV-1 = test system: IGROV-1
SK-MEL-28 = test system: SK-MEL-28
EKVX = test system: EKVX
SF-539 = test system: SF-539
MDA-MB-231 = test system: MDA-MB-231
RPMI-8226 = test system: RPMI-8226
NCI/ADR-RES = test system: NCI/ADR-RES
UACC-257 = test system: UACC-257
K562 = test system: K562
MDA-N = test system: MDA-N
OVCAR-4 = test system: OVCAR-4
PC-3 = test system: PC-3
NCI-H522 = test system: NCI-H522
CAKI-1 = test system: CAKI-1
SK-OV-3 = test system: SK-OV-3
MCF7 = test system: MCF7

Measured: GI50

CO[C@@H](c1ccccc1)[C@H](O)[C@](O)(c1ccccc1)P(=O)(OC)OC
inactive: CCRF-CEM > 100 µM | LOX IMVI > 100 µM | OVCAR-5 > 100 µM | IGROV-1 > 100 µM | SK-MEL-28 > 100 µM | EKVX > 100 µM | SF-539 > 100 µM | MDA-MB-231 > 100 µM | RPMI-8226 > 100 µM | NCI/ADR-RES > 100 µM | UACC-257 > 100 µM | K562 > 100 µM | MDA-N > 100 µM | OVCAR-4 > 100 µM | PC-3 > 100 µM | NCI-H522 > 100 µM | CAKI-1 > 100 µM | SK-OV-3 > 100 µM

CNC(=S)NNc1ncnc2c1ncn2-c1ccc(C)cc1
inactive: CCRF-CEM > 100 µM | LOX IMVI > 100 µM | OVCAR-5 > 100 µM | IGROV-1 > 100 µM | SK-MEL-28 > 100 µM | EKVX > 100 µM | SF-539 > 100 µM | MDA-MB-231 43.9 µM | RPMI-8226 > 100 µM | NCI/ADR-RES > 100 µM | UACC-257 > 100 µM | K562 > 100 µM | MDA-N > 100 µM | OVCAR-4 > 100 µM | PC-3 > 100 µM | NCI-H522 > 100 µM | CAKI-1 > 100 µM | SK-OV-3 > 100 µM

COC1=CC(=O)O/C1=C(\OC)C1OC1c1ccccc1 (configuration not stated)
inactive: CCRF-CEM 35.2 µM | LOX IMVI > 100 µM | OVCAR-5 > 100 µM | IGROV-1 > 100 µM | SK-MEL-28 > 100 µM | EKVX > 100 µM | SF-539 > 100 µM | MDA-MB-231 74.3 µM | RPMI-8226 > 100 µM | NCI/ADR-RES > 100 µM | UACC-257 > 100 µM | OVCAR-4 > 100 µM | PC-3 > 100 µM | NCI-H522 > 100 µM | CAKI-1 > 100 µM | SK-OV-3 > 100 µM | MCF7 > 100 µM

COc1cc(CC2CC(c3ccc4c(c3)OCO4)OC2=O)cc(OC)c1OC (configuration not stated)
inactive: CCRF-CEM > 100 µM | LOX IMVI > 100 µM | OVCAR-5 > 100 µM | SK-MEL-28 > 100 µM | EKVX 65.9 µM | SF-539 > 100 µM | MDA-MB-231 52.1 µM | RPMI-8226 25.1 µM | NCI/ADR-RES 83.2 µM | UACC-257 77.4 µM | K562 71.8 µM | PC-3 91.6 µM | CAKI-1 59.2 µM | SK-OV-3 > 100 µM | MCF7 > 100 µM

CC1(C)CC(=O)C(=CN2C(=O)CNC2=S)C(=O)C1
inactive: CCRF-CEM > 100 µM | OVCAR-5 > 100 µM | IGROV-1 > 100 µM | EKVX > 100 µM | SF-539 > 100 µM | MDA-MB-231 > 100 µM | NCI/ADR-RES > 100 µM | UACC-257 > 100 µM | MDA-N > 100 µM | OVCAR-4 > 100 µM | PC-3 > 100 µM | NCI-H522 > 100 µM | CAKI-1 > 100 µM | SK-OV-3 > 100 µM | MCF7 > 100 µM

COC(=O)C(=CNC(N)=O)C(=O)OC
inactive: CCRF-CEM > 100 µM | LOX IMVI > 100 µM | OVCAR-5 > 100 µM | IGROV-1 > 100 µM | SK-MEL-28 > 100 µM | EKVX > 100 µM | SF-539 > 100 µM | RPMI-8226 > 100 µM | NCI/ADR-RES > 100 µM | UACC-257 > 100 µM | K562 > 100 µM | MDA-N > 100 µM | PC-3 > 100 µM | NCI-H522 > 100 µM | CAKI-1 > 100 µM | MCF7 > 100 µM

COc1nc(C(=O)NNC(=O)c2nc(OC)c3ccccc3c2-c2ccccc2)c(-c2ccccc2)c2ccccc12
inactive: CCRF-CEM > 100 µM | OVCAR-5 > 100 µM | IGROV-1 > 100 µM | SK-MEL-28 > 100 µM | EKVX > 100 µM | MDA-MB-231 > 100 µM | RPMI-8226 > 100 µM | NCI/ADR-RES > 100 µM | UACC-257 > 100 µM | K562 > 100 µM | OVCAR-4 > 100 µM | PC-3 > 100 µM | NCI-H522 > 100 µM | CAKI-1 > 100 µM | SK-OV-3 > 100 µM | MCF7 > 100 µM

N#C/C(=C\c1cc(Br)c(O)c(Br)c1)c1ccccn1
inactive: CCRF-CEM 34.1 µM | OVCAR-5 51.4 µM | IGROV-1 > 100 µM | SK-MEL-28 82 µM | EKVX 26.7 µM | SF-539 84.7 µM | RPMI-8226 73.5 µM | NCI/ADR-RES 43 µM | UACC-257 35.4 µM | K562 34.6 µM | MDA-N > 100 µM | OVCAR-4 61 µM | PC-3 29.1 µM | NCI-H522 64.9 µM | CAKI-1 > 100 µM | SK-OV-3 32.5 µM | MCF7 89.3 µM
